Measurements from ChEMBL document CHEMBL6078640, “Trivalent oleanolic acid-glucose conjugates: Synthesis and efficacy against Influenza A virus” (Eur J Med Chem, 2024).

What was measured:
Influenza A virus [1] = assay: Antiviral activity against influenza A virus A/WSN/33(H1N1) infected in MDCK cells assessed as inhibition of viral-induced cytopathic effect pretreated with cells followed by viral infection and measured after 40 hrs by fluorescence based microplate reader analysis; type: functional, organism-based
MDCK = assay: Cytotoxicity against dog MDCK cells assessed as reduction in cell viability at 100 uM incubated for 40 hrs by celltiter-glo assay; type: toxicity, cell-based, Canis lupus familiaris
Influenza A virus [2] = assay: Antiviral activity against Influenza A virus H1N1 infected in MDCK cells assessed as inhibition of viral growth at 100 uM relative to control; type: functional
[3] = Cytotoxicity against dog MDCK cells assessed as reduction in cell viability incubated for 40 hrs by celltiter-glo assay; type: toxicity, cell-based, Canis lupus familiaris
[4] = Selectivity index, ratio of CC50 for dog MDCK cells to IC50 for influenza A virus A/WSN/33(H1N1) infected in MDCK cells; type: toxicity, cell-based; conditions: read-out: Selectivity Index

Compound | IC50 (Influenza A virus [1]) [µM] | Activity (MDCK) | inhibition at 100 µM (Influenza A virus [2]) [%] | CC50 at 40 h [3] [µM] | selectivity ratio [4]
CC(=O)OC[C@H]1O[C@@H](n2cc(CNC(=O)[C@]34CCC(C)(C)C[C@H]3C3=CC[C@@H]5[C@@]6(C)CC[C@H](OC(=O)NCCCc7cn(CC(CO)(Cn8cc(CCCNC(=O)O[C@H]9CC[C@]%10(C)[C@H]%11CC=C%12[C@@H]%13CC(C)(C)CC[C@]%13(C(=O)NCc%13cn([C@@H]%14O[C@H](COC(C)=O)[C@@H](OC(C)=O)[C@H](OC(C)=O)[C@H]%14OC(C)=O)nn%13)CC[C@@]%12(C)[C@]%11(C)CC[C@H]%10C9(C)C)nn8)Cn8cc(CCCNC(=O)O[C@H]9CC[C@]%10(C)[C@H]%11CC=C%12[C@@H]%13CC(C)(C)CC[C@]%13(C(=O)NCc%13cn([C@@H]%14O[C@H](COC(C)=O)[C@@H](OC(C)=O)[C@H](OC(C)=O)[C@H]%14OC(C)=O)nn%13)CC[C@@]%12(C)[C@]%11(C)CC[C@H]%10C9(C)C)nn8)nn7)C(C)(C)[C@@H]6CC[C@@]5(C)[C@]3(C)CC4)nn2)[C@H](OC(C)=O)[C@@H](OC(C)=O)[C@@H]1OC(C)=O | 4.61 | Non-toxic | > 75 | > 100 | > 21.7
CC1(C)CC[C@]2(C(=O)NCc3cn([C@@H]4O[C@H](CO)[C@@H](O)[C@H](O)[C@H]4O)nn3)CC[C@]3(C)C(=CC[C@@H]4[C@@]5(C)CC[C@H](OC(=O)NCCCc6cn(CC(CO)(Cn7cc(CCCNC(=O)O[C@H]8CC[C@]9(C)[C@H]%10CC=C%11[C@@H]%12CC(C)(C)CC[C@]%12(C(=O)NCc%12cn([C@@H]%13O[C@H](CO)[C@@H](O)[C@H](O)[C@H]%13O)nn%12)CC[C@@]%11(C)[C@]%10(C)CC[C@H]9C8(C)C)nn7)Cn7cc(CCCNC(=O)O[C@H]8CC[C@]9(C)[C@H]%10CC=C%11[C@@H]%12CC(C)(C)CC[C@]%12(C(=O)NCc%12cn([C@@H]%13O[C@H](CO)[C@@H](O)[C@H](O)[C@H]%13O)nn%12)CC[C@@]%11(C)[C@]%10(C)CC[C@H]9C8(C)C)nn7)nn6)C(C)(C)[C@@H]5CC[C@]43C)[C@@H]2C1 | 3.93 | Non-toxic | > 75 | > 100 | > 25.5
CC(=O)OC[C@H]1O[C@@H](n2cc(CNC(=O)[C@]34CCC(C)(C)C[C@H]3C3=CC[C@@H]5[C@@]6(C)CC[C@H](OC(=O)NCc7cn(Cc8cc(Cn9cc(CNC(=O)O[C@H]%10CC[C@]%11(C)[C@H]%12CC=C%13[C@@H]%14CC(C)(C)CC[C@]%14(C(=O)NCc%14cn([C@@H]%15O[C@H](COC(C)=O)[C@@H](OC(C)=O)[C@H](OC(C)=O)[C@H]%15OC(C)=O)nn%14)CC[C@@]%13(C)[C@]%12(C)CC[C@H]%11C%10(C)C)nn9)cc(Cn9cc(CNC(=O)O[C@H]%10CC[C@]%11(C)[C@H]%12CC=C%13[C@@H]%14CC(C)(C)CC[C@]%14(C(=O)NCc%14cn([C@@H]%15O[C@H](COC(C)=O)[C@@H](OC(C)=O)[C@H](OC(C)=O)[C@H]%15OC(C)=O)nn%14)CC[C@@]%13(C)[C@]%12(C)CC[C@H]%11C%10(C)C)nn9)c8)nn7)C(C)(C)[C@@H]6CC[C@@]5(C)[C@]3(C)CC4)nn2)[C@H](OC(C)=O)[C@@H](OC(C)=O)[C@@H]1OC(C)=O | 0.68 | Non-toxic | > 75 | > 100 | > 147
CC(=O)OC[C@H]1O[C@@H](n2cc(CNC(=O)[C@]34CCC(C)(C)C[C@H]3C3=CC[C@@H]5[C@@]6(C)CC[C@H](OC(=O)NCCc7cn(Cc8cc(Cn9cc(CCNC(=O)O[C@H]%10CC[C@]%11(C)[C@H]%12CC=C%13[C@@H]%14CC(C)(C)CC[C@]%14(C(=O)NCc%14cn([C@@H]%15O[C@H](COC(C)=O)[C@@H](OC(C)=O)[C@H](OC(C)=O)[C@H]%15OC(C)=O)nn%14)CC[C@@]%13(C)[C@]%12(C)CC[C@H]%11C%10(C)C)nn9)cc(Cn9cc(CCNC(=O)O[C@H]%10CC[C@]%11(C)[C@H]%12CC=C%13[C@@H]%14CC(C)(C)CC[C@]%14(C(=O)NCc%14cn([C@@H]%15O[C@H](COC(C)=O)[C@@H](OC(C)=O)[C@H](OC(C)=O)[C@H]%15OC(C)=O)nn%14)CC[C@@]%13(C)[C@]%12(C)CC[C@H]%11C%10(C)C)nn9)c8)nn7)C(C)(C)[C@@H]6CC[C@@]5(C)[C@]3(C)CC4)nn2)[C@H](OC(C)=O)[C@@H](OC(C)=O)[C@@H]1OC(C)=O | 46.8 | Non-toxic | > 75 | > 100 | > 8.55
CC1(C)CC[C@]2(C(=O)NCc3cn([C@@H]4O[C@H](CO)[C@@H](O)[C@H](O)[C@H]4O)nn3)CC[C@]3(C)C(=CC[C@@H]4[C@@]5(C)CC[C@H](OC(=O)NCCc6cn(Cc7cc(Cn8cc(CCNC(=O)O[C@H]9CC[C@]%10(C)[C@H]%11CC=C%12[C@@H]%13CC(C)(C)CC[C@]%13(C(=O)NCc%13cn([C@@H]%14O[C@H](CO)[C@@H](O)[C@H](O)[C@H]%14O)nn%13)CC[C@@]%12(C)[C@]%11(C)CC[C@H]%10C9(C)C)nn8)cc(Cn8cc(CCNC(=O)O[C@H]9CC[C@]%10(C)[C@H]%11CC=C%12[C@@H]%13CC(C)(C)CC[C@]%13(C(=O)NCc%13cn([C@@H]%14O[C@H](CO)[C@@H](O)[C@H](O)[C@H]%14O)nn%13)CC[C@@]%12(C)[C@]%11(C)CC[C@H]%10C9(C)C)nn8)c7)nn6)C(C)(C)[C@@H]5CC[C@]43C)[C@@H]2C1 | 20.1 | Non-toxic | > 75 | > 100 | > 4.97
CCOC(=O)C1=C[C@@H](OC(CC)CC)[C@H](NC(C)=O)[C@@H](N)C1.O=P(O)(O)O [OSELTAMIVIR PHOSPHATE] | 5.47 | Non-toxic | – | > 100 | > 18.3
CC1(C)CC[C@]2(C(=O)NCc3cn([C@@H]4O[C@H](CO)[C@@H](O)[C@H](O)[C@H]4O)nn3)CC[C@]3(C)C(=CC[C@@H]4[C@@]5(C)CC[C@H](OC(=O)NCCCCCc6cn(CC(CO)(Cn7cc(CCCCCNC(=O)O[C@H]8CC[C@]9(C)[C@H]%10CC=C%11[C@@H]%12CC(C)(C)CC[C@]%12(C(=O)NCc%12cn([C@@H]%13O[C@H](CO)[C@@H](O)[C@H](O)[C@H]%13O)nn%12)CC[C@@]%11(C)[C@]%10(C)CC[C@H]9C8(C)C)nn7)Cn7cc(CCCCCNC(=O)O[C@H]8CC[C@]9(C)[C@H]%10CC=C%11[C@@H]%12CC(C)(C)CC[C@]%12(C(=O)NCc%12cn([C@@H]%13O[C@H](CO)[C@@H](O)[C@H](O)[C@H]%13O)nn%12)CC[C@@]%11(C)[C@]%10(C)CC[C@H]9C8(C)C)nn7)nn6)C(C)(C)[C@@H]5CC[C@]43C)[C@@H]2C1 | 5.99 | Non-toxic | > 75 | > 100 | > 16.7
CC1(C)CC[C@]2(C(=O)NCc3cn([C@@H]4O[C@H](CO)[C@@H](O)[C@H](O)[C@H]4O)nn3)CC[C@]3(C)C(=CC[C@@H]4[C@@]5(C)CC[C@H](OC(=O)NCCc6cn(CC(CO)(Cn7cc(CCNC(=O)O[C@H]8CC[C@]9(C)[C@H]%10CC=C%11[C@@H]%12CC(C)(C)CC[C@]%12(C(=O)NCc%12cn([C@@H]%13O[C@H](CO)[C@@H](O)[C@H](O)[C@H]%13O)nn%12)CC[C@@]%11(C)[C@]%10(C)CC[C@H]9C8(C)C)nn7)Cn7cc(CCNC(=O)O[C@H]8CC[C@]9(C)[C@H]%10CC=C%11[C@@H]%12CC(C)(C)CC[C@]%12(C(=O)NCc%12cn([C@@H]%13O[C@H](CO)[C@@H](O)[C@H](O)[C@H]%13O)nn%12)CC[C@@]%11(C)[C@]%10(C)CC[C@H]9C8(C)C)nn7)nn6)C(C)(C)[C@@H]5CC[C@]43C)[C@@H]2C1 | 3.39 | Non-toxic | – | > 100 | > 29.5
